Consider 37 compounds from patent publication US20250161338A1, “Compounds for Anti-aging Intervention” (AGENCY FOR SCIENCE, TECHNOLOGY AND RESEARCH, priority 2022, published 2025).

Where a name gives a salt, the structure may show the parent alone. Residues, ends and D or L forms follow the SMILES beside them.

The subject of assay [1] is prototrophic yeast strain (CEN.PK113-7D). In words: Propidium iodide fluorescence-based CLS method in yeast (incl. high-throughput screening).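 For PI intensity: untreated reference is eight DMSO and water control wells per plate.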 To be noted: concentration tested 100 μM; for Yeast CLS increase: Yes/No call of the screen; for PI intensity: solvent DMSO or water, chronological age point Day 7 (72 h growth = Day 1), lower = more survival. Format: cell-based, Saccharomyces cerevisiae. An outline of the steps:
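CEN.PK113-7D aged in SD medium at 30 °C with compounds (rapamycin 0–10 nM; sugars 0–8 mM; screen at single concentrations). At each age point cells were stained with 5 μg/mL PI for 15 min; fluorescence was normalized to OD600, background-subtracted, and survival scaled against boiled-cell control.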

Assay [2] shares this test system. Nature of the assay: Yeast outgrowth in YPD liquid medium (CLS of aged cells). Format: cell-based, Saccharomyces cerevisiae. To be noted: concentration tested 100 μM; OD600 nm after 24 h in YPD at 30° C.; age point day 14. An outline of the steps: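 Cultures aged at 30 °C in SD medium with double-diluted rapamycin (0–10 nM) or sugars/polyols (0–8 mM). On day 14, 3 µL of culture was transferred into 200 µL YPD and outgrowth read as OD600. Survival expressed relative to day 1 outgrowth (100%).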

Take `CC1(C)CC[C@]2(C(=O)O)CC[C@]3(C)C(=CC[C@@H]4[C@@]5(C)CC[C@H](O)[C@@](C)(CO)[C@@H]5CC[C@]43C)[C@@H]2C1` [Hederagenin]: in assay [1], the “Yeast CLS increase” value is “No” and the PI intensity was 73,281.0. For the same compound, the Outgrowth in assay [2] is 0.1.

For `CC[C@H](C)[C@@H]1NC(=O)[C@@H]2CCCN2C(=O)[C@@H]2CCCN2C(=O)[C@@H]2CCCN2C(=O)[C@H](CC(C)C)NC(=O)CNC(=O)CNC(=O)[C@H](Cc2ccccc2)NC1=O` [Heterophyllin B] (cyclo(FGGLPPPI)), in assay [1], the “Yeast CLS increase” value is recorded as “No” and the PI intensity is 61,587.8. This compound also returned an Outgrowth in assay [2] of 0.2.

As for `O=c1cc(O)cc(/C=C/c2ccc(O)c(O)c2)o1` [Hispidin], in assay [1], the “Yeast CLS increase” value is reported as “No” and the PI intensity is 67,098.8. Further, the Outgrowth in assay [2] is on record as 0.1.

For `COc1cc(CC(=O)O)ccc1O` [Homovanillic acid], in assay [1], the “Yeast CLS increase” value is listed as “No” and the PI intensity is reported as 65,033.1. For the same compound, the Outgrowth in assay [2] is 0.1.

As for `CCCCCCCCCCCCCCCC(=O)NCCO` [Impulsin], in assay [1], the “Yeast CLS increase” value is on record as “No” and the PI intensity is on record as 71,903.7. Moreover, the Outgrowth in assay [2] was determined as 0.1.

On to `C=C1C(=O)O[C@@H]2C[C@@]3(C)CCCC(=C)[C@@H]3C[C@H]12` [Isoalantolactone], for which, in assay [1], the “Yeast CLS increase” value is reported as “No” and the PI intensity is recorded as 94,566.8. In assay [2], this compound had an Outgrowth of 0.1.

`O=C(/C=C/c1ccc(O)c(O)c1)O[C@@H]1C[C@](O)(C(=O)O)C[C@@H](OC(=O)/C=C/c2ccc(O)c(O)c2)[C@H]1O` [Isochlorogenic acid A]: in assay [1], the “Yeast CLS increase” value is “No” and the PI intensity is 63,157.7. In assay [2], this compound gave an Outgrowth of 0.1.

In the case of `Nc1nccc(=O)[nH]1` [Isocytosine], in assay [1], the “Yeast CLS increase” value is given as “No” and the PI intensity is recorded as 68,813.6. This compound came in with an Outgrowth in assay [2] of 0.1.

On to `O=C(O)[C@H]1O[C@@H](Oc2c(-c3ccc(O)cc3)oc3cc(O)cc(O)c3c2=O)[C@H](O)[C@@H](O)[C@@H]1O` [Kaempferol 3-O-β-D-glucuronide], for which, in assay [1], the “Yeast CLS increase” value is “No” and the PI intensity is given as 62,874.6. Moreover, the Outgrowth in assay [2] is 0.1.

For the compound `Cl.N[C@@H](CS)C(=O)O.O` [L-Cysteine (hydrochloride hydrate)], in assay [1], the “Yeast CLS increase” value is “No” and the PI intensity is recorded as 69,216.4. In assay [2], this compound came in with an Outgrowth of 0.1.

Turning to `N[C@@H](CCO)C(=O)O` [L-Homoserine], in assay [1], the “Yeast CLS increase” value is recorded as “No” and the PI intensity was 60,922.1. The compound also displayed an Outgrowth in assay [2] of 0.1.

Take `Nc1ccccc1C(=O)C[C@H](N)C(=O)O` [L-Kynurenine]: in assay [1], the “Yeast CLS increase” value is “No” and the PI intensity is 72,824.1. For the same compound, the Outgrowth in assay [2] was 0.1.

Regarding `Cl.NCCC[C@H](N)C(=O)O` [L-Ornithine (hydrochloride)], the “Yeast CLS increase” value in assay [1] is “No”. The compound further displayed an Outgrowth in assay [2] of 0.1.

On to `C[Se]CC[C@H](N)C(=O)O` [L-SelenoMethionine], for which, in assay [1], the “Yeast CLS increase” value is “Yes” and the PI intensity is on record as 31,240.0. In assay [2], this compound returned an Outgrowth of 1.2.

In the case of `Br.CCN1C[C@]2(OC(=O)c3ccccc3NC(C)=O)CC[C@H](OC)[C@@]34[C@@H]2C[C@@H]([C@@H]13)[C@@]1(O)C[C@H](OC)[C@H]2C[C@@H]4[C@]1(O)[C@H]2OC` [Lappaconitine (hydrobromide)], in assay [1], the “Yeast CLS increase” value was “No” and the PI intensity is listed as 76,000.0. Moreover, the Outgrowth in assay [2] was 0.1.

As to `CCC[C@@H]1C[C@@H](C(=O)N[C@@H]([C@H]2O[C@H](SC)[C@H](O)[C@@H](O)[C@H]2O)[C@@H](C)O)N(C)C1` [Lincomycin (hydrochloride monohydrate), reference compound], in assay [1], the “Yeast CLS increase” value is “No” and the PI intensity is given as 67,751.3. The same compound gave an Outgrowth in assay [2] of 0.1.

On to `COC(=O)CC(C)=O` [Methyl acetylacetate], for which, in assay [1], the “Yeast CLS increase” value is recorded as “No” and the PI intensity is 64,956.3. Besides, in assay [2], the Outgrowth stood at 0.1.

With `C[C@](N)(Cc1ccc(O)cc1)C(=O)O` [Metyrosine, reference compound], in assay [1], the “Yeast CLS increase” value is given as “No” and the PI intensity is 76,947.2. For the same compound, the Outgrowth in assay [2] worked out at 0.1.

As for `CN(C)c1ccc(O)c2c1C[C@H]1C[C@H]3[C@H](N(C)C)C(O)=C(C(N)=O)C(=O)[C@@]3(O)C(O)=C1C2=O` [Minocycline (hydrochloride), reference compound], in assay [1], the PI intensity is given as 71,078.2. In addition, in assay [2], the Outgrowth is 0.1.

In the case of `C/C(=C\C(=O)OCCCCCCCCC(=O)O)C[C@@H]1OC[C@H](C[C@@H]2O[C@H]2[C@@H](C)[C@H](C)O)[C@@H](O)[C@H]1O` [Mupirocin, reference compound], in assay [1], the “Yeast CLS increase” value is reported as “No” and the PI intensity was 68,477.7. The compound further came in with an Outgrowth in assay [2] of 0.1.

In the case of `CN(C)c1nc2c(ncn2[C@@H]2O[C@H](CO)[C@@H](O)[C@H]2O)c(=O)[nH]1` [N2,N2-Dimethylguanosine], in assay [1], the “Yeast CLS increase” value is reported as “No” and the PI intensity was 65,619.9. This compound came in with an Outgrowth in assay [2] of 0.1.

Turning to `CC(=O)N[C@@H](Cc1ccc(O)cc1)C(=O)O` [N-Acetyl-L-tyrosine], in assay [1], the “Yeast CLS increase” value is reported as “No” and the PI intensity is 57,322.5. In assay [2], this compound had an Outgrowth of 0.1.

`O=C1N[C@@H]2C(=C[C@H](O)[C@@H](O)[C@H]2O)c2cc3c(c(O)c21)OCO3` [Narciclasine]: in assay [1], the “Yeast CLS increase” value is reported as “No” and the PI intensity is 67,161.8. The compound further came in with an Outgrowth in assay [2] of 0.1.

Take `CC(C)(O)CCc1c(O)cc(O)c2c(=O)c(O)c(-c3ccc(O)cc3)oc12` [Noricaritin]: in assay [1], the “Yeast CLS increase” value is reported as “No” and the PI intensity was 77,179.8. The same compound showed an Outgrowth in assay [2] of 0.1.

Turning to `Cn1cc(C(N)=O)ccc1=O` [Nudifloramide], in assay [1], the “Yeast CLS increase” value is “No” and the PI intensity is given as 65,023.3. Further, in assay [2], the Outgrowth turned out to be 0.1.

Regarding `CCCCCCCCCCCCCCC(=O)O` [Pentadecanoic acid], in assay [1], the “Yeast CLS increase” value is listed as “No” and the PI intensity was 75,173.9. In addition, the Outgrowth in assay [2] is recorded as 0.1.

For `CC(O)Cn1cnc2c1c(=O)n(C)c(=O)n2C` (stereo not shown) [Proxyphylline, reference compound], in assay [1], the “Yeast CLS increase” value is “No” and the PI intensity is given as 72,232.1. The compound also gave an Outgrowth in assay [2] of 0.1.

Turning to `c1ncc2[nH]cnc2n1` [Purine], in assay [1], the “Yeast CLS increase” value is “No” and the PI intensity is on record as 53,185.1. The same compound came in with an Outgrowth in assay [2] of 0.1.

On to `Cl.Cl.[O-][S+]1c2ccccc2N=C(N2CCN(CCOCCO)CC2)c2ccccc21` (stereo not shown) [Quetiapine sulfoxide (dihydrochloride)], for which, in assay [1], the “Yeast CLS increase” value was “No” and the PI intensity is reported as 68,761.6. This compound also registered an Outgrowth in assay [2] of 0.1.

Turning to `C=C[C@H]1C[N@@]2CC[C@H]1C[C@H]2[C@H](O)c1ccnc2ccc(OC)cc12` [Quinine (hydrochloride dihydrate), reference compound], in assay [1], the “Yeast CLS increase” value is listed as “No”. In addition, the Outgrowth in assay [2] worked out at 0.1.

For `CO[C@H]1C[C@@H]2CC[C@@H](C)[C@@](O)(O2)C(=O)C(=O)N2CCCC[C@H]2C(=O)O[C@H]([C@H](C)C[C@@H]2CC[C@@H](O)[C@H](OC)C2)CC(=O)[C@H](C)/C=C(\C)[C@@H](O)[C@@H](OC)C(=O)[C@H](C)C[C@H](C)/C=C/C=C/C=C/1C` [Rapamycin, reference compound], in assay [1], the PI intensity is recorded as 21,460.5. In addition, the Outgrowth in assay [2] is on record as 1.3.

For `CC1=C(/C=C/C(C)=C/C=C/C(C)=C/C(=O)O)C(C)(C)CCC1` [Retinoic acid, reference compound], in assay [1], the PI intensity was 85,242.6. Also, the Outgrowth in assay [2] was 0.1.

With `CC[C@H]1CN2CC[C@]3(C(=O)Nc4ccccc43)[C@@H]2C[C@@H]1/C(=C\OC)C(=O)OC` [Rhynchophylline], in assay [1], the “Yeast CLS increase” value is “No” and the PI intensity is recorded as 55,562.5. In addition, the Outgrowth in assay [2] came out at 0.1.

Regarding `CO[C@H]1/C=C/O[C@@]2(C)Oc3c(C)c([O-])c4c(O)c(cc(O)c4c3C2=O)NC(=O)/C(C)=C\C=C\[C@H](C)[C@H](O)[C@@H](C)[C@@H](O)[C@@H](C)[C@H](OC(C)=O)[C@@H]1C.[Na+]` [Rifamycin (sodium), reference compound], in assay [1], the “Yeast CLS increase” value is “Yes” and the PI intensity is given as 39,446.0. Also, the Outgrowth in assay [2] is recorded as 0.6.

For `C[C@H]1CNCCCN1S(=O)(=O)c1cccc2cncc(F)c12` [Ripasudil, reference compound], in assay [1], the “Yeast CLS increase” value is on record as “No” and the PI intensity is 77,962.0. In assay [2], the Outgrowth stood at 0.1.

Consider `O=C(O)/C=C/CCCCCCCO` [Royal Jelly acid], for which, in assay [1], the “Yeast CLS increase” value was “No” and the PI intensity is listed as 65,406.1. The compound further gave an Outgrowth in assay [2] of 0.1.

In the case of `CC[C@@]1(O)C(=O)OCc2c1cc1n(c2=O)Cc2cc3c([N+](=O)[O-])cccc3nc2-1` [Rubitecan], in assay [1], the “Yeast CLS increase” value is “No” and the PI intensity was 57,075.3. Moreover, the Outgrowth in assay [2] is recorded as 0.1.
